Measurements: patent publication US11629121B2, “Benzylideneacetone derivative and use thereof” (KORPHARM CO., LTD., priority 2017, dated 2023)

How the values were obtained:
[1] = test system: AGS human gastric cancer cell line; assay: MTT assay, cancer cells AGS; type: cell-based; conditions: 48 hours
From the text: (§1) The cytotoxicity against normal cells and cancer cells was confirmed using the MTT assay for the novel compounds KP2 to KP8 prepared in Example 1.
(§2) MTT assay method is as follows:
(§3) Normal cells (RAW264.7 rat macrophage cell line (osteoblast progenitor cell) and NIH3T3 mouse fibroblast line) and cancer cells (AGS human gastric cancer cell line, A549 human lung cancer cell line, HepG2 human liver cancer cell line, HCT116 human colon cancer cell line, PC3 human prostate cancer Cell line, Caki-1 human kidney cancer cell line, T24 human bladder cancer cell line, HT1080 human fibrosarcoma cell line, B16F10 mouse melanoma cell line) were cultured in 5% CO2 in 96-well plates containing DMEM with 10% FBS (fetal bovine serum). After incubation, KP2 to KP8 and controls (osmundacetone and 4-hydroxybenzalacetone) were added to the cell medium and incubated for 48 hours. Thereafter, 100 μl of MTT (0.5 mg/mL phosphate buffered saline) was added, followed by incubation for 2 hours. 100 μl of DMSO was added to each well, followed by incubation for 10 minutes, and the absorbance was measured at 550 nm using a microplate reader (SPCTRA MAX 340PC, Molecular Devices, USA). Absorbance is calculated by the formula below as an indicator of the number of cells that survived, and reproducibility was confirmed by three experiments.
(§4) The rate of cell proliferation (%)=OD550(sample)/OD550(control)

[2] = test system: A549 human lung cancer cell line; assay: MTT assay, cancer cells A549; type: cell-based; conditions: for LD63 Cancer cell A549: MTT assay, 48 hours
From the text: as §1, §2, §3, §4

[3] = test system: HT1080 human fibrosarcoma cell line; assay: MTT assay, cancer cells HT1080; type: cell-based; conditions: 48 hours
From the text: as §1, §2, §3, §4

[4] = test system: osteoblasts (mouse MC3T3-E1); assay: ALP (Alkaline phosphatase) assay, osteoblast activity; type: cell-based; conditions: for ALP activity / osteoblast activation versus control: 10 μM and 50 μM; for % Activation of ALP activity: MC3T3-E1, 14 days, percentage against control
Description: Effect of KP4 to KP6 on proliferation and differentiation of osteoblast were confirmed using ALP (Alkaline phosphatase) assay, a method for measuring osteoblast activity.
Alkaline phosphatase (ALP), which is present in the cell membranes of osteoblasts, is known as a marker of osteoblast activity and is a regulator of inorganic phosphate transport, cell division or differentiation during calcification. Therefore, ALP activity was measured to determine the effect of the compounds of the present invention on the activity of osteoblasts. ALP activity was indirectly calculated by measuring the amount of p-nitrophenol, which is produced from hydrolysis of p-nitrophenyl phosphate (pNPP, Sigma, St. Louis, Mo., USA) in which ALP act as a catalyst, using a microplate reader at 405 nm wavelength.
Specifically, osteoblasts (mouse MC3T3-E1) were aliquoted into a 96-well plate (3×10^3 cells/100 μL/well) with α-MEM medium containing ascorbic acid (50 μg/mL) and 10 mM β-glycerophosphate, a differentiation factors of osteoblast. Then, KP4 to KP6 of the present invention, and osmundacetone were added at a final concentration of 10 μM and 50 μM, followed by changing medium every 72 hours and incubating for 14 days. After 14 days, the culture medium was removed from each well, washed three times with PBS, lysed with 0.2% Nonidet P-40/10 mmol/L MgCl2, and then treated ultrasonic wave with sosonifier cell disrupter (Model W-380, Heat Systems-Ultrasonics Inc., Farmingdale, N.Y.) for 3 minutes. The cell lysate was centrifuged at 1500 g for 10 minutes and the supernatant was collected to measure ALP activity. To account for changes in ALP activity according to cell number differences, total protein levels were measured using bicinchoninic acid (BCA) protein assay kit with bovine serum albumin as the standard protein, and enzyme activity was expressed as a percentage against the control group without the compound treatment.

[5] = test system: RAW264.7 rat macrophage cell line; assay: MTT assay, normal cells RAW264.7; type: cell-based; conditions: rat, 48 h
From the text: as §1, §2, §3, §4

[6] = test system: T24 human bladder cancer cell line; assay: MTT assay, cancer cells T24; type: cell-based; conditions: for LD63 Cancer cell T24: MTT assay, 48 hours
From the text: as §1, §2, §3, §4

[7] = test system: PC3 human prostate cancer Cell line; assay: MTT assay, cancer cells PC3; type: cell-based; conditions: 48 hours
From the text: as §1, §2, §3, §4

[8] = test system: Caki-1 human kidney cancer cell line; assay: MTT assay, cancer cells Caki-1; type: cell-based; conditions: 48 hours
From the text: as §1, §2, §3, §4

[9] = test system: HCT116 human colon cancer cell line; assay: MTT assay, cancer cells HCT116; type: cell-based; conditions: for LD63 Cancer cell HCT116: MTT assay, 48 hours; for inhibitory activity better than Osmundacetone: HP116 colorectal cancer cells
From the text: as §1, §2, §3, §4

[10] = test system: NIH3T3 mouse fibroblast line; assay: MTT assay, normal cells NIH3T3; type: cell-based; conditions: for LD50 Normal cells NTH3T3: mouse, 48 h
From the text: as §1, §2, §3, §4

[11] = test system: B16F10 mouse melanoma cell line; assay: MTT assay, cancer cells B16F10; type: cell-based; conditions: 48 hours, H16F10
From the text: as §1, §2, §3, §4

[12] = test system: HepG2 human liver cancer cell line; assay: MTT assay, cancer cells HepG2; type: cell-based; conditions: for cancer cell inhibitory activity versus Osmundacetone: HepG2 hepatocellular carcinoma cells; for LD63 Cancer cell HepG2: MTT assay, 48 hours
From the text: as §1, §2, §3, §4

[13] = test system: osteoclast differentiation from bone marrow cells (RANKL and M-CSF); assay: TRAP assay, osteoclast differentiation and proliferation; type: cell-based, C57BL/6 mice; conditions: Osteoclast; TRAP-positive multinucleated cells, mouse bone marrow cells, 6-7 days; read-out: osteoclast differentiation inhibitory activity IC50
Description: The specific method of the TRAP assay is as follows:
The tibia and femur were aseptically excised from 6 to 8 weeks old male C57BL/6 mice, and bone marrow cells were collected aseptically with a syringe (21G, Korea Green Cross). Bone marrow cells were suspended in 500 μl of -MEM medium (Gibco BRL Co.) containing sodium bicarbonate (2.0 g/L), streptomycin (100 mg/L) and penicillin ([…]), and aliquoted into a 48-well plate, and assay was carried out with triplicate. The progenitor cells of osteoclasts, monocytes, were isolated and treated with RANKL and M-CSF, which are differentiation promoters, to differentiate into osteoclasts within 5-7 days.
1) Sample preparation: KP2 to KP8 (0.5 μM, 1 μM, 5 μM or 10 μM), Fosamax (0.5 μM, 1 μM, 5 μM, or 10 μM) and the like were dissolved in DMSO (dimethylsulfoxide) or sterile distilled water at appropriate concentrations, respectively.
2) Sample administration: The Samples were continuously administered to the medium at 1:20 (v/v; 25 μL of sample per 500 μL of medium) from the first day of culture of bone marrow cells, and the medium was replaced at 3 days intervals.
3) Osteoclast differentiation measurement: Osteoclasts were defined as TRAP-positive multinucleated cells stained with TRAP. […] The reaction reagents were stored in the refrigerator until use.
Bone marrow cells were cultured in a medium containing differentiation factors for 6-7 days, and then the medium was removed, washed with PBS, and fixed in PBS containing 10% formalin for 2-5 minutes. After fixed for 1 minute with a 1:1 mixture of ethanol and acetone, and dried. The fixed cells were treated with TRAP staining solution for 60 minutes at 37° C. with light blocking, washed with PBS, and then stained with Hematoxylin.
Among the TRAP-positive cells in the microscope field, cells with two or more nuclei were determined as osteoclasts and the number of cells was measured.

Structure (SMILES)	LD63 Cancer cell AGS [1] [µM]	LD63 Cancer cell A549 [2] [µM]	LD63 Cancer cell HT1080 [3]	ALP activity / osteoblast activation versus control [4]	% Activation of ALP activity ([4]; 10 μM) [%]	% Activation of ALP activity ([4]; 50 μM) [%]	LD50 Normal cells RAW264.7 [5] [µM]	LD63 Cancer cell T24 [6]	LD63 Cancer cell PC3 [7]	LD63 Cancer cell Caki-1 [8] [µM]	LD63 Cancer cell HCT116 [9]	LD50 Normal cells NTH3T3 [10] [µM]	Cytotoxicity, B16F10 cells [11]	LD63 Cancer cell HepG2 [12] [µM]	inhibitory activity better than Osmundacetone [9] [times]	IC50 [13] [µM]	other results
COc1cc(/C=C/C(C)=O)ccc1O [KP4, (E)-4-(4-hydroxy-3-methoxyphenyl)-3-buten-2-one]	417 ± 15	3010 ± 38	>5,000 μM	higher ALP activity	113 ± 2.9	422 ± 6.9	399 ± 42	>5000 µM	223 ± 85 µM	506 ± 13	495 ± 13 µM	>5000	423 ± 39 µM				ALP activity increase compared with the control group ([4]; 50 μM): ≥ 400%; osteoblast activity compared to osmundacetone treat group ([4]; 50 μM): 1.5 times
Cc1ccc(/C=C/C(N)=O)cc1O [KP7, (E)-3-(3-hydroxy-4-methylphenyl)acrylamide]	329 ± 14	989 ± 50	309 ± 10 µM				>5000	1040 ± 360 µM	394 ± 140 µM	361 ± 16	315 ± 19 µM	>5000	1210 ± 110 µM	379 ± 38	2		cancer cell inhibitory activity versus Osmundacetone [12]: significantly better cancer cell inhibitory activity
CC(=O)C=Cc1ccc(O)cc1 [4-Hydroxybenzalacetone, reference compound]							294 ± 45					201 ± 10					
NC(=O)/C=C/c1ccc(F)c(O)c1 [KP8, (E)-3-(4-fluoro-3-hydroxyphenyl)acrylamide]	569 ± 4.8	935 ± 10	1090 ± 19 µM				>5000	203 ± 69 µM	>5,000 μM	2990 ± 58	>5,000 μM	>5000	>5,000 μM	1280 ± 390			inhibitory activity ([6]; T24 bladder cancer cells): particularly better inhibitory activity
NCCCC(O)(P(=O)(O)O)P(=O)(O)O [Fosamax, reference compound]																4	
CC(=O)/C=C/c1ccc(O)c(F)c1 [KP6, (E)-4-(3-fluoro-4-hydroxyphenyl)-3-buten-2-one]	336 ± 3.9	901 ± 28	>5,000 μM	no activity on activating osteoblast	102 ± 0.2	100 ± 0.8	1110 ± 48	3610 ± 130 µM	205 ± 13 µM	449 ± 40	490 ± 38 µM	>5000	421 ± 41 µM			6	
COc1ccc(/C=C/C(C)=O)cc1O [KP5, (E)-4-(3-hydroxy-4-methoxyphenyl)-3-buten-2-one]	181 ± 15	1890 ± 210	381 ± 49 µM	higher ALP activity	103 ± 1.1	175 ± 0.3	261 ± 79	>5000 µM	291 ± 5.7 µM	409 ± 11	491 ± 72 µM	>5000	441 ± 58 µM			1	
CC(=O)/C=C/c1ccc(C)c(O)c1 [KP2, (E)-4-(3-hydroxy-4-methylphenyl)but-3-en-2-one]	209 ± 5.9	471 ± 24	256 ± 14 µM				395 ± 22	1120 ± 67 µM	309 ± 3.1 µM	387 ± 57	380 ± 32 µM	688 ± 12	298 ± 27 µM	339 ± 79	2		cancer cell inhibitory activity versus Osmundacetone ([2]; A549 lung cancer cells): significantly better cancer cell inhibitory activity; cancer cell inhibitory activity versus Osmundacetone [12]: significantly better cancer cell inhibitory activity; cytotoxicity to normal cells [10]: weak cytotoxicity
CC(=O)/C=C/c1ccc(F)c(O)c1 [KP3, (E)-4-(4-fluoro-3-hydroxyphenyl)but-3-en-2-one]	239 ± 14	1090 ± 46	379 ± 10 µM				503 ± 57	>5,000 μM	387 ± 48 µM	408 ± 12	389 ± 18 µM	>5000	278 ± 15 µM	612 ± 95	2		
